Laboratory results: US20090215713A1, “Use of atp for the manufacture of a medicament for the prevention and treatment of oxidative stress and related conditions” (priority 2004, published 2009)
Entries after “also recorded” stand apart in the source; their conditions may differ.

Key:
TNF-α = test: LPS+PHA-induced TNF-α secretion in whole blood from healthy subjects (ELISA); type: cell-based, human; settings: for effect of purinergic compound on LPS+PHA-induced TNF-α release: 300 μM, 24 h; for effect on inhibiting TNFα and stimulating IL-10 production: LPS-PHA stimulated whole blood, Experiment 4
Description: FIG. 7 Effect of ATP on LPS+PHA-induced TNF-α secretion in whole blood from healthy subjects. The whole blood was exposed to 10 μg/ml LPS and 1 μg/ml PHA with indicated concentrations of ATP for 24 h. The TNF-α released into the supernatants was analyzed using the ELISA method. Results are expressed in percentage, 100% being the TNF-α release under stimulation by LPS+PHA without ATP. […] Data are expressed as the mean values; error bars represent SEM. *, different from control (stimulation by LPS+PHA without ATP) (P<0.05).
FIG. 13 Effect of different purinergic compounds on LPS+PHA-induced TNF-α secretion in whole blood. The whole blood was exposed to 10 μg/ml LPS and 1 μg/ml PHA with the indicated purinergic compounds at the concentration of 300 μM for 24 h. The TNF-α released into the supernatant was analyzed using the ELISA method. Results are expressed in percentage, 100% being the TNF-α release under stimulation by LPS+PHA without addition of a purinergic compound (control). […] The TNF-α release induced by LPS+PHA from whole blood was not inhibited by UTP, UDP or CTP. Data are expressed as the mean values; error bars represent SEM.
Blood was collected from 8 healthy subjects in heparin containing vacutainer tubes. All incubations were performed in duplicate. ATP was dissolved in RPMI 1640 culture medium, at a final concentration of 1-300 μM, and blood pre-incubated with ATP at 5% CO2 at 37 DC for 30 min. After stimulation with LPS en PHA (10 and 1 μg/ml final concentration, respectively), the plates were incubated in 5% CO2 at 37° C. for 24 h. Cell-free supernatant fluids were then collected by centrifugation (6000 rpm, 10 min at 4° C.) and stored at −20° C. until tested for presence of cytokines. All cytokines were quantified by means of PeliKine Compact human ELISA kits (CLB/Sanquin, The Netherlands), based on appropriate and validated sets of monoclonal antibodies.
Whole blood was collected and stimulated with LPS+PHA as described for Experiment 2. ATP, dissolved in RPMI 1640 culture medium, was added to the blood at a final concentration of 1-1000 μM. The agonists were added in the same way as ATP, however their stock solutions are prepared in PBS and further diluted in medium. All incubations are performed in duplicate.

[1] = ESR measurement of DMPO—OH spin adducts during Fenton chemistry; type: biochemical
Description: The effect of ATP on the formation or scavenging of hydroxyl radicals, generated by Fenton reagents was measured as DMPO—OH spin adducts in ESR spectra. The ESR studies were performed at room temperature using a Bruker EMX 1273 spectrometer equipped with an ER 4119HS high sensitivity cavity and 12 kW power supply. The following instrument conditions were used: scan range, 60 G; center magnetic field, 3490 G; modulation amplitude, 1.0 G; microwave frequency, 9.86 GHz; time constant, 40.96 ms, scan time, 20.48 ms; number of scans, 50. OH radicals were generated by the Fenton reaction, and 5,5-dimethyl-1-pyrroline N-oxide (DMPO) was used for trapping hydroxyl radicals. Fifty microliters of 10 mM H2O2, 50 μl of 250 mM DMPO, 50 μl milliQ, 50 μl milliQ (control) or sample, and 50 μl 5 mM FeSO4/5 mM EDTA were mixed, and then transferred to a capillary glass tube. After 2 minutes, DMPO—OH spin adducts were measured by ESR. Quantification of the spectra was performed by peak integration using the WIN-EPR spectrum manipulation program.
Electron spin resonance (ESR) studies were performed at room temperature using a Bruker EMX 1273 spectrometer equipped with an ER 4119HS high sensitivity cavity and 12 kW power supply. The following instrument conditions were used: scan range, 60 G; center magnetic field, 3490 G; modulation amplitude, 1.0 G; microwave frequency, 9.86 GHz; time constant, 40.96 ms, scan time, 20.48 ms; number of scans, 50. OH radicals were generated by the Fenton reaction, and 5,5-Dimethyl-1-pyrroline N-oxide (DMPO) was used for trapping hydroxyl radicals. Fifty microliters of 10 mM H2O2, 50 μl 250 mM DMPO, 50 μl milliQ, 50 μl milliQ (blanco) or sample and 50 μl 5 mM FeSO4/5 mM EDTA were mixed, transferred to a capillary glass tube and the DMPO—OH spin adducts were measured after 2 minutes by ESR. Quantification of the spectra (in arbitrary units) was performed by peak integration using the WIN-EPR spectrum manipulation program.

[2] = test system: mice bearing colon tumour; settings: cited from earlier work; for effect on host weight loss: daily intraperitoneal injections of 25 mmol/L for 10 days

SMILES	effect of purinergic compound on LPS+PHA-induced TNF-α release (TNF-α)	effect on inhibiting TNFα and stimulating IL-10 production (TNF-α)	also measured
Nc1ncnc2c1ncn2[C@@H]1O[C@H](COP(=O)(O)OP(=O)(O)O)[C@@H](O)[C@H]1O [ADP]	inhibited	–	effectiveness in preventing DMPO—OH formation relative to comparator ([1]; 0.1 mM-10 mM): slightly less effective; inhibition of the DMPO—OH spin adduct formation ([1]; highest concentration used (range 0.1 mM-10 mM)): ≈ 70%
Nc1ncnc2c1ncn2[C@@H]1O[C@H](COP(=O)(O)O)[C@@H](O)[C@H]1O [AMP]	inhibited	–	effect on hydroxyl radicals ([1]; 0.1, 0.3 and 1 mM): no significant effect; effect on hydroxyl radicals ([1]; 3 and 10 mM): reduction of hydroxyl radicals; also recorded: significant (P<0.05) reduction; effect on host weight loss [2]: significant inhibition
Nc1ccn([C@@H]2O[C@H](COP(=O)(O)OP(=O)(O)OP(=O)(O)O)[C@@H](O)[C@H]2O)c(=O)n1 [CTP]	not inhibited	little or no effect	–
O=c1ccn([C@@H]2O[C@H](COP(=O)(O)OP(=O)(O)O)[C@@H](O)[C@H]2O)c(=O)[nH]1 [UDP]	not inhibited	little or no effect	–
O=c1ccn([C@@H]2O[C@H](COP(=O)(O)OP(=O)(O)OP(=O)(O)O)[C@@H](O)[C@H]2O)c(=O)[nH]1 [UTP]	not inhibited	little or no effect	–
Nc1ncnc2nc[nH]c12 [adenine]	–	–	effect on DMPO—OH spin adduct formation / hydroxyl radicals ([1]; 1 mM): little or no effect; also recorded: no significant (P<0.05) effect
Nc1ncnc2c1ncn2[C@@H]1O[C@H](CO)[C@@H](O)[C@H]1O [adenosine]	least inhibition	–	inhibition of host weight loss of tumour-bearing animals ([2]; adenosine without phosphate): ineffective; effect on host weight loss [2]: significant inhibition
